In general, EC50 refers to the midpoint of the concentration-response curve. In general, Emax refers to the maximal effect, on the per cent scale that the assay sets.

Type in all cases: biochemical
In assay [1] the target is T1, μ-opioid receptor (Homo sapiens (Human), UniProt P35372). In words: μ-opioid receptor [35S]GTPγS functional assay (HEK). Particulars: for Emax: relative to DAMGO. How it is done: (§1) [^35S]GTPγS functional assays were conducted using freshly thawed μ-receptor membranes prepared in-house from a cell line expressing recombinant μ opioid receptor in a HEK-293, CHO or U-2 OS cell background, or purchased from a commercial source (Perkin Elmer, Shelton, Conn.; or DiscovRx, Fremont, Calif.). Assay reactions were prepared by sequentially adding the following reagents to binding buffer (100 mM NaCl, 10 mM MgCl2, 20 mM HEPES, pH 7.4) on ice (final concentrations indicated): membrane protein (0.026 mg/mL), saponin ([…]), GDP ([…]) and [^35S]GTPγS (0.20 nM; Perkin Elmer, Shelton, Conn.). The prepared membrane solution (190 μl/well) was transferred to 96-shallow well polypropylene plates containing 10 μl of 20× concentrated stock solutions of the agonist [D-Ala^2, N-methyl-Phe^4 Gly-ol^5]-enkephalin (DAMGO) prepared in dimethyl sulfoxide (DMSO). Plates were incubated for […] at about 25° C. with shaking. Reactions were terminated by rapid filtration onto 96-well Unifilter GF/B filter plates (Perkin Elmer, Shelton, Conn.) using a 96-well tissue harvester (Perkin Elmer, Shelton, Conn.) followed by three filtration washes with 200 μl of ice-cold wash buffer (10 mM NaH2PO4, 10 mM Na2HPO4, pH 7.4). Filter plates were subsequently dried at 50° C. for 2-3 hours. BetaScint scintillation cocktail (Perkin Elmer, Shelton, Conn.) was added (50 μl/well) and plates were counted using a Packard Top-Count for 1 min/well. Data were analyzed using the sigmoidal dose-response curve fitting functions in GraphPad PRISM v. 3.0, or an in-house function for non-linear, sigmoidal dose-response curve-fitting.
(§2) μ GTP EC50 is the concentration of a compound providing 50% of the maximal response for the compound at a μ-opioid receptor.
(§3) μ GTP Emax (%) is the maximal effect elicited by a compound relative to the effect elicited by DAMGO, a standard agonist. Generally, the μ GTP Emax (%) value measures the efficacy of a compound to treat or prevent pain or other Conditions.
(§4) In TABLE 3, activity response of certain Compounds of the Invention to the μ- and κ-opioid receptors was determined as described above for functional assays using HEK cells.
A general note: GTPγS resists hydrolysis and so accumulates on activated G proteins.

Assay [2] concerns the target T1, μ-opioid receptor. In words: μ-opioid receptor [35S]GTPγS functional assay (U-2 OS). Particulars: for Emax: U2OS, GTPγS, relative to DAMGO. How it is done:
as §1, §2, §3
(§5) In TABLE 4, activity response of certain Compounds of the Invention to the μ- and κ-opioid receptors was determined as described above for functional assays using U-2 OS cells.

Assay [3] concerns the target T2, κ opioid receptor (Homo sapiens (Human), UniProt P41145). The experiment in a line: κ-opioid receptor [35S]GTPγS functional assay (U-2 OS). Particulars: for Emax: U2OS, GTPγS, relative to U69,593. How it is done:
(§6) Functional [^35S]GTPγS binding assays were conducted as follows. K opioid receptor membrane solution was prepared by sequentially adding final concentrations of 0.026 μg/μl membrane protein (in-house), 10 μg/mL saponin, 3 μM GDP and 0.20 nM [^35S]GTPγS to binding buffer (100 mM NaCl, 10 mM MgCl2, 20 mM HEPES, pH 7.4) on ice. The prepared membrane solution (190 μl/well) was transferred to 96-shallow well polypropylene plates containing 10 μl of 20× concentrated stock solutions of agonist prepared in DMSO. Plates were incubated for 30 min at a temperature of about 25° C. with shaking. Reactions were terminated by rapid filtration onto 96-well Unifilter GF/B filter plates (Perkin Elmer, Shelton, Conn.) using a 96-well tissue harvester (Packard) and followed by three filtration washes with 200 μl ice-cold binding buffer (10 mM NaH2PO4, 10 mM Na2HPO4, pH 7.4). Filter plates were subsequently dried at 50° C. for 2-3 hours. Fifty μl/well scintillation cocktail (Perkin Elmer, Shelton, Conn.) was added and plates were counted in a Packard Top-Count for 1 min/well.
(§7) GTP EC50 is the concentration of a compound providing 50% of the maximal response for the compound at a κ receptor.
(§8) κ GTP Emax (%) is the maximal effect elicited by a compound relative to the effect elicited by U69,593.
as §5

Assay [4] addresses T2, κ opioid receptor. In words: κ-opioid receptor [35S]GTPγS functional assay (HEK). Particulars: for Emax: HEK, GTPγS, relative to U69,593. How it is done:
as §6, §7, §8, §4

On to `COc1ccc2c(c1)[C@]13CCN(CC4CC4)[C@H](C2)[C@]1(O)C[C@H]1CC(=O)N(CC(C)C)[C@H]1C3` [Compound 13, (6R,6aS,7aS,10aS,11aR)-14-(cyclopropylmethyl)-6a-hydroxy-10-isobutyl-2-methoxy-5,6,6a,7,7a,8,10a,11-octahydro-6,11a-(epiminoethano)naphtho[2,1-f]indol-9(10H)-one], for which the EC50 at μ-opioid receptor [1] came to 0.224 ± 0.0346 µM; at μ-opioid receptor [2] it was 0.0822 ± 0.00171 µM; on κ opioid receptor [3], 0.0195 ± 0.00137 µM. The Emax on μ-opioid receptor [1] (HEK, GTPγS) was found to be 13.2 ± 1.39%; on μ-opioid receptor [2], 55 ± 2%; at κ opioid receptor [3], 106 ± 2.4%.
At μ-opioid receptor [1], `O=C1C[C@@H]2C[C@@]3(O)[C@H]4Cc5ccc(O)cc5[C@@]3(CCN4CCCc3ccccc3)C[C@@H]2N1` [Compound 4, (6R,6aS,7aS,10aS,11aR)-2,6a-dihydroxy-14-(3-phenylpropyl)-5,6,6a,7,7a,8,10a,11-octahydro-6,11a-(epiminoethano)naphtho[2,1-f]indol-9(10H)-one] yielded an EC50 of 0.321 ± 0.0206 µM. The Emax on μ-opioid receptor [1] (HEK, GTPγS) was determined as 47.3 ± 7.26%.
As for `CCN1C(=O)C[C@@H]2C[C@@]3(O)[C@H]4Cc5ccc(OC)cc5[C@@]3(CCN4CC3CC3)C[C@@H]21` [Compound 11, (6R,6aS,7aS,10aS,11aR)-14-(cyclopropylmethyl)-10-ethyl-6a-hydroxy-2-methoxy-5,6,6a,7,7a,8,10a,11-octahydro-6,11a-(epiminoethano)naphtho[2,1-f]indol-9(10H)-one], the EC50 is 0.625 ± 0.0326 µM at μ-opioid receptor [1], 0.204 ± 0.0112 µM on μ-opioid receptor [2] and 0.0169 ± 0.00196 µM at κ opioid receptor [3]. For the same compound, the Emax was 36.4 ± 2.23% at μ-opioid receptor [1] (HEK, GTPγS); 78 ± 3% on μ-opioid receptor [2]; 107 ± 3.94% at κ opioid receptor [3].
As for `COc1ccc2c(c1)[C@]13CCN(C)[C@H](C2)[C@]1(O)C[C@@H]1NC(=O)O[C@@H]1C3` [Compound 19, (6R,6aS,7aS,10aR,11aR)-6a-hydroxy-2-methoxy-14-methyl-5,6,6a,7,7a,8,10a,11-octahydro-9H-6,11a-(epiminoethano)phenanthro[2,3-d]oxazol-9-one], on μ-opioid receptor [1], the EC50 is greater than 20 µM. This compound also gave an Emax on μ-opioid receptor [1] (HEK, GTPγS) of 2 ± 0.58%.
In the case of `COc1ccc2c(c1)[C@]13CCN(C)[C@H](C2)[C@]1(O)C[C@H]1CC(=O)N[C@H]1C3` [Compound 3, (6R,6aS,7aS,10aS,11aR)-6a-hydroxy-2-methoxy-14-methyl-5,6,6a, 7,7a,8,10a,11-octahydro-6,11a-(epiminoethano)naphtho[2,1-f]indol-9(10H)-one], the EC50 was 2.28 µM at μ-opioid receptor [1], 18.8 ± 4.87 µM on κ opioid receptor [4], 0.0929 ± 0.00603 µM on μ-opioid receptor [2] and greater than 20 µM on κ opioid receptor [3]. In addition, the Emax came out at 106 ± 0.58% at μ-opioid receptor [1] (HEK, GTPγS); 52 ± 6.11% on κ opioid receptor [4]; 102.7 ± 0.67% at μ-opioid receptor [2]; 108 ± 9.39% at κ opioid receptor [3].
As for `O=C1C[C@@H]2C[C@@]3(O)[C@H]4Cc5ccc(O)cc5[C@@]3(CCN4CC3CC3)C[C@@H]2N1CC1CC1` [Compound 17, (6R,6aS,7aS,10aS,11aR)-10,14-bis(cyclopropylmethyl)-2,6a-dihydroxy-5,6,6a,7,7a,8,10a,11-octahydro-6,11a-(epiminoethano)-naphtho[2,1-f]indol-9(10H)-one], the EC50 at μ-opioid receptor [1] was greater than 20 µM. The compound further showed an Emax on μ-opioid receptor [1] (HEK, GTPγS) of 1%.
Take `CN1C(=O)C[C@@H]2C[C@@]3(O)[C@H]4Cc5ccc(O)cc5[C@@]3(CCN4CC3CC3)C[C@@H]21` [Compound 12, (6R,6aS,7aS,10aS,11aR)-14-(cyclopropylmethyl)-2,6a-dihydroxy-10-methyl-5,6,6a,7,7a,8,10a,11-octahydro-6,11a-(epiminoethano)naphtho[2,1-f]indol-9(10H)-one]: the figures for the EC50 on μ-opioid receptor [1] and at κ opioid receptor [4] were 0.00218 ± 2.1e-05 µM and 0.00066 ± 1.4e-05 µM, respectively. Further, the Emax is 29.3 ± 0.33% at μ-opioid receptor [1] (HEK, GTPγS) and 106 ± 6.78% on κ opioid receptor [4].
`COc1ccc2c(c1)[C@]13CCN(CC4CC4)[C@H](C2)[C@]1(O)C[C@H]1CC(=O)N(C)[C@H]1C3` [Compound 15, (6R,6aS,7aS,10aS,11aR)-14-(cyclopropylmethyl)-6a-hydroxy-2-methoxy-10-methyl-5,6,6a,7,7a,8,10a,11-octahydro-6,11a-(epiminoethano)naphtho[2,1-f]indol-9(10H)-one]: the results for the EC50 at μ-opioid receptor [1], on μ-opioid receptor [2] and on κ opioid receptor [3] were 0.863 ± 0.0697 µM, 0.349 ± 0.0263 µM and 0.113 ± 0.0363 µM, respectively. The Emax on μ-opioid receptor [1] (HEK, GTPγS) turned out to be 23.6 ± 2.32%; on μ-opioid receptor [2], 75 ± 3%; at κ opioid receptor [3] it was 129 ± 5%.
In the case of `COc1ccc2c(c1)[C@]13CCN(C)[C@H](C2)[C@]1(O)CC1=CC(=O)N[C@H]1C3` [Compound 2, (6R,6aS,10aS,11aR)-6a-hydroxy-2-methoxy-14-methyl-5,6,6a,7,10a,11-hexahydro-6,11a-(epiminoethano)naphtho[2,1-f]indol-9(10H)-one], the EC50 was 12.3 ± 0.615 µM on μ-opioid receptor [1], 0.739 ± 0.059 µM at μ-opioid receptor [2] and greater than 20 µM at κ opioid receptor [3]. The Emax was determined as 51.8 ± 0.39% at μ-opioid receptor [1] (HEK, GTPγS); 103.3 ± 0.67% on μ-opioid receptor [2]; 84.7 ± 2.73% on κ opioid receptor [3].
`CN1CC[C@]23C[C@@H]4OC(=O)N[C@H]4C[C@@]2(O)[C@H]1Cc1ccc(O)cc13` [Compound 20, (6R,6aS,7aS,10aS,11aR)-2,6a-dihydroxy-14-methyl-5,6,6a,7,7a,8,10a,11-octahydro-9H-6,11a-(epiminoethano)phenanthro[2,3-d]oxazol-9-one]: at μ-opioid receptor [1], the EC50 turned out to be 1.31 µM. This compound also showed an Emax on μ-opioid receptor [1] (HEK, GTPγS) of 12.4 ± 0.77%.
For `O=C1C[C@@H]2C[C@@]3(O)[C@H]4Cc5ccc(O)cc5[C@@]3(CCN4CC3CCOCC3)C[C@@H]2N1` [Compound 6, (6R,6aS,7aS,10aS,11aR)-2,6a-dihydroxy-14-((tetrahydro-2H-pyran-4-yl)methyl)-5,6,6a,7,7a,8,10a,11-octahydro-6,11a-(epiminoethano)naphtho[2,1-f]indol-9(10H)-one], the response on μ-opioid receptor [1] was half-maximal at 1.47 µM (EC50). This compound also returned an Emax at μ-opioid receptor [1] (HEK, GTPγS) of 7.33 ± 0.88%.
On to `O=C1C=C2C[C@@]3(O)[C@H]4Cc5ccc(O)cc5[C@]3(C=C2N1CC1CC1)CCN4CC1CC1` [Compound 18, (6R,6aS,11aR)-10,14-bis(cyclopropylmethyl)-2,6a-dihydroxy-5,6,6a,7-tetrahydro-6,11a-(epiminoethano)naphtho[2,1-f]indol-9(10H)-one], for which the EC50 on μ-opioid receptor [1] is greater than 20 µM. The compound further gave an Emax on μ-opioid receptor [1] (HEK, GTPγS) of 6%.
Regarding `COc1ccc2c(c1)[C@]13CCN(CC4CC4)[C@H](C2)[C@]1(O)C[C@H]1CC(=O)N(CC2CC2)[C@H]1C3` [Compound 14, (6R,6aS,7aS,10aS,11aR)-10,14-bis(cyclopropylmethyl)-6a-hydroxy-2-methoxy-5,6,6a,7,7a,8,10a,11-octahydro-6,11a-(epiminoethano)naphtho[2,1-f]indol-9(10H)-one], the EC50 is 0.146 ± 0.0211 µM at μ-opioid receptor [1], 0.0495 ± 0.00387 µM at μ-opioid receptor [2] and 0.0166 ± 0.00193 µM at κ opioid receptor [3]. The Emax stood at 13.2 ± 0.95% at μ-opioid receptor [1] (HEK, GTPγS); 43.7 ± 4.7% at μ-opioid receptor [2]; 101.8 ± 0.63% on κ opioid receptor [3].
As to `O=C1C[C@@H]2C[C@@]3(O)[C@H]4Cc5ccc(O)cc5[C@@]3(CCN4CC[C@@]3(c4ccccn4)CCOC4(CCCC4)C3)C[C@@H]2N1` [Compound 7, (6R,6aS,7aS,10aS,11aR)-2,6a-dihydroxy-14-(2-((R)-9-(pyridin-2-yl)-6-oxaspiro-[4.5]decan-9-yl)ethyl)-5,6,6a,7,7a,8,10a,11-octahydro-6,11a-(epiminoethano)-naphtho[2,1-f]indol-9(10H)-one], at μ-opioid receptor [1] (HEK, GTPγS, bound given in μM, read-out: μ EC50), the EC50 is greater than 20 µM. Further, at μ-opioid receptor [1] (HEK, GTPγS), the Emax turned out to be 4.5%.

The record behind these values is patent US10435406B2, “6,7-cyclicmorphinan derivatives and use thereof” (Purdue Pharma L.P., priority 2014, dated 2019).
